Drawing on patent US20160000782A1, “PHARMACEUTICAL COMPOSITION CONTAINING ANTIBACTERIAL AGENT” (priority 2013, published 2016), this text covers symptoms, symptoms thereafter and improvement for 1 molecule.

For the assay, the system named is Archaea (extreme halophile) infection causing dementia. The assay is described as follows: Treatment of patients with progressive dementia of unknown etiology (clinical course, MRI). The assay is classed as in vivo, human. As to the method:
The present inventors conducted studies by targeting 4 subjects with progressive dementia of unknown etiology at the Kagoshima University Medical and Dental Hospital. This study took place after the informed consent of the patients involved had been obtained. Also, this study was carried out with the approval of the ethical review committee of Kagoshima University.
Dementia was evaluated using the Revised Hasegawa Dementia Scale (HDS-R), which is […] that used for the mini-mental status examination (MMSE).

Take `CO/N=C(\C(=O)N[C@@H]1C(=O)N2C(C(=O)O)=C(CSc3nc(=O)c(=O)[nH]n3C)CS[C@H]12)c1csc(N)n1` [ceftriaxone]: the symptoms result (Patient 1, ceftriaxone and methylprednisolone administered together, 2 weeks after the initial administration) was “improved slightly”. Also, the symptoms thereafter result (Patient 1, ceftriaxone and methylprednisolone administered together, later course, enlarged lesion in base of temporal lobe on brain MRI) is “tended to progress”. Also, the improvement entry (Patient 3, ceftriaxone 4 g/day intravenous for 2 weeks) is “no improvement was observed”.
